From patent US20230203041A1, “ANTAGONISTS OF THE ADENOSINE A2A RECEPTOR” (AdoRx Therapeutics Limited, priority 2020, published 2023) come the findings set out here.

The target in test [1] is T1, human Adenosine A2b receptor (Homo sapiens, UniProt P29275).
T1 construct: expressed in transfected cells; host or cells: CHO cell membranes
T1 sequence (P29275 1-332): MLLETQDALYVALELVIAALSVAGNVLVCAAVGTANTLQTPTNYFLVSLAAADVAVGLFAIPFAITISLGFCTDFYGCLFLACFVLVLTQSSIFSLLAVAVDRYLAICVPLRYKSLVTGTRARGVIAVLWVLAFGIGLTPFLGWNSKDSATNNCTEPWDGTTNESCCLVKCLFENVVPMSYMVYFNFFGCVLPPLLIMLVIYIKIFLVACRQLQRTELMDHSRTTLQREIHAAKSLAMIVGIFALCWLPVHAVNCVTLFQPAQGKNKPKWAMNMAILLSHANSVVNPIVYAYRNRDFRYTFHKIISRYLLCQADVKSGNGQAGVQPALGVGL
The test is described as follows: Adenosine receptor TR-FRET binding assay (CA200645 displacement), A2b. The settings on record: 30 nM CA200645, CHO cell membranes, 2 hours at room temperature.

Test [2] addresses T2, human Adenosine A1 receptor (Homo sapiens, UniProt P30542).
T2 sequence (P30542 1-326): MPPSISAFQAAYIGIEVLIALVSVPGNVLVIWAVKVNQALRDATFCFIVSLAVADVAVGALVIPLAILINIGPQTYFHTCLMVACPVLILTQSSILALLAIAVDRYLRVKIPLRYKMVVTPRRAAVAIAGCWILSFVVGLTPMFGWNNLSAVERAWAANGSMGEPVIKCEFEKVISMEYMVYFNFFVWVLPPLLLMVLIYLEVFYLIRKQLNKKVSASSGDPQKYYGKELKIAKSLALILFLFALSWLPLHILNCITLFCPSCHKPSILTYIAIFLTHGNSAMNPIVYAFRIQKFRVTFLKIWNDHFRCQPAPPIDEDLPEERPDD
The test is described as follows: Adenosine receptor TR-FRET binding assay (CA200645 displacement), A1.

Test [3] deals with T3, human Adenosine A2a receptor (Homo sapiens, UniProt P29274).
T3 construct: expressed in transfected cells; host or cells: CHO cell membranes
T3 sequence (P29274 whole entry): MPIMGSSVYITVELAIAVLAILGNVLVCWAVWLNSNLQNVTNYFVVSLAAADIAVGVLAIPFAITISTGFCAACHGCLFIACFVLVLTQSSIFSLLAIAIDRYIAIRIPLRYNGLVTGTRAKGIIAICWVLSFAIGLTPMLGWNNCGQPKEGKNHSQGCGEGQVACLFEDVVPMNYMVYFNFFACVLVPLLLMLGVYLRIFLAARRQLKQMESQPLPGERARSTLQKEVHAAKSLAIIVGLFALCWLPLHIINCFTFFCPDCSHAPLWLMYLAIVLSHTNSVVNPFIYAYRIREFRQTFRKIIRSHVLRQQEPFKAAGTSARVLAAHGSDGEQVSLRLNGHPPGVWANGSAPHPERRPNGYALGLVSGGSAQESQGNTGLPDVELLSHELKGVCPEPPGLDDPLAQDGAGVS
The test is described as follows: Adenosine receptor TR-FRET binding assay (CA200645 displacement), A2a. The conditions noted are these: 100 nM CA200645, CHO cell membranes, 2 hours at room temperature. On the technique in general: In TR-FRET formats the signal depends on donor and acceptor labels being close together.

Test [4] has as its target T4, human Adenosine A3 receptor (Homo sapiens, UniProt P0DMS8).
T4 sequence (P0DMS8 1-318): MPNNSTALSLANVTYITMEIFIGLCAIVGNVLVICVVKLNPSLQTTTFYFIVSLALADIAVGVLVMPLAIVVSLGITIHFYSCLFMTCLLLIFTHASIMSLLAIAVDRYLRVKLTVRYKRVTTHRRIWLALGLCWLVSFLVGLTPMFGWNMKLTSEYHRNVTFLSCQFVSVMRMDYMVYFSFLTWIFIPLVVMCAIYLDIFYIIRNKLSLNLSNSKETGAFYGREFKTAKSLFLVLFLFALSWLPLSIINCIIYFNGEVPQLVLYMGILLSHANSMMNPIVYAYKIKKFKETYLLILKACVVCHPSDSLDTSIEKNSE
The test can be described thus: Adenosine receptor TR-FRET binding assay (CA200645 displacement), A3.

By Ki is commonly meant a measure of affinity in units of concentration, obtained from inhibition or displacement. Regarding `Cc1cc(-c2c(-c3cccc(C#N)c3)nn3ccc(C(=O)NC4(C#N)CCNCC4)nc23)cc(Cl)n1` (single isomer, unassigned) [Example 7.16, 3-(2-Chloro-6-methyl-4-pyridyl)-2-(3-cyanophenyl)-N-(4-cyano-4-piperidyl)pyrazolo[1,5-a]pyrimidine-5-carboxamide], the Ki was 54 nM in test [1], 418 nM in test [2], 17.7 nM in test [3] and over 1000 nM in test [4].

With `Cc1cc(-c2c(-c3cccc(C#N)c3)nn3ccc(C(=O)NC4(C(N)=O)CCNCC4)nc23)cc(Cl)n1` (single isomer, unassigned) [Example 7.17, N-(4-Carbamoyl-4-piperidyl)-3-(2-chloro-6-methyl-4-pyridyl)-2-(3-cyanophenyl)pyrazolo[1,5-a]pyrimidine-5-carboxamide], the Ki was 68 nM in test [1], 279 nM in test [2], 16.4 nM in test [3] and over 1000 nM in test [4].

`N#Cc1cccc(-c2nn3ccc(N)nc3c2-c2ccnnc2)c1` [Example 1.2]: the inhibitory constant (Ki) in test [1] was found to be 29 nM; in test [2] it was 20 nM; in test [3], 13.9 nM; in test [4], 646 nM.

Turning to `CCn1nccc1-c1c(-c2cccc(C#N)c2)nn2ccc(N)nc12` [Example 1.3], the inhibition constant Ki in test [1] was 16 nM; in test [2], 197 nM; in test [3], 74.8 nM; in test [4] it was over 1000 nM.

Take `Cc1cc(-c2c(-c3cccc(C#N)c3)nn3ccc(N4CC5CCC(C4)N5C)nc23)cc(Cl)n1` [Example 2.2]: the Ki in test [1] is 45 nM; in test [2], 5 nM; in test [3], 0.5 nM; in test [4], over 1000 nM.

`CO[C@H]1CN(C)C[C@@H]1Nc1ccn2nc(-c3cccc(C#N)c3)c(-c3cc(C)nc(Cl)c3)c2n1` [Example 2.5]: the Ki in test [1] is 1 nM; in test [2], 24 nM; in test [3], 0.9 nM; in test [4] it was over 1000 nM.

With `Cc1cc(-c2c(-c3cccc(C#N)c3)nn3ccc(N[C@@H]4CCOC4)nc23)cc(Cl)n1` [Example 2.6], the Ki is 12 nM in test [1], 87 nM in test [2], 1 nM in test [3] and over 1000 nM in test [4].

With `Cc1cc(-c2c(-c3cccc(C#N)c3)nn3ccc(N4CCN(C)C(CO)C4)nc23)cc(Cl)n1` (stereo not shown) [Example 2.7], the Ki in test [1] was 57 nM; in test [2], 76 nM; in test [3], 1.3 nM; in test [4], over 1000 nM.

In the case of `Cc1cc(-c2c(-c3cccc(C#N)c3)nn3ccc(NCC(C)(C)C(=O)O)nc23)cc(Cl)n1` [Example 2.13], the Ki in test [1] is 1310 nM; in test [2] it was 1390 nM; in test [3] it was 71.4 nM; in test [4], over 1000 nM.

In the case of `Cc1cc(-c2c(-c3cccc(C#N)c3)nn3ccc(NCC4CNC(=O)C4)nc23)cc(Cl)n1` (stereo not shown) [Example 2.14], the inhibition constant Ki was 8 nM in test [1], 29 nM in test [2], 1.5 nM in test [3] and over 1000 nM in test [4].

On to `Cc1cc(-c2c(-c3cccc(C#N)c3)nn3ccc(NC4CN5CCC4CC5)nc23)cc(Cl)n1` (stereo not shown) [Example 2.17], for which the Ki is 6 nM in test [1], 45 nM in test [2], 2.4 nM in test [3] and over 1000 nM in test [4].

`Cc1cc(-c2c(-c3cccc(C#N)c3)nn3ccc(NCCN4CCOCC4)nc23)cc(Cl)n1` [Example 2.19]: the Ki in test [1] was 21 nM; in test [2], 32 nM; in test [3], 2.8 nM; in test [4] it was over 1000 nM.

Turning to `Cc1cc(-c2c(-c3cccc(C#N)c3)nn3ccc(N[C@@H]4CC[C@@H]4O)nc23)cc(Cl)n1` [Example 2.22], the Ki in test [1] was 48 nM; in test [2], 109 nM; in test [3], 6.2 nM; in test [4] it was over 1000 nM.

Regarding `Cc1cc(-c2c(-c3cccc(C#N)c3)nn3ccc(N[C@H]4CCOC4)nc23)cc(Cl)n1` [Example 2.25], the inhibition constant Ki was 27 nM in test [1], 674 nM in test [2], 7.5 nM in test [3] and over 1000 nM in test [4].

Take `Cc1cc(-c2c(-c3cccc(C#N)c3)nn3ccc(N4CCS(=N)(=O)CC4)nc23)cc(Cl)n1` [Example 2.26]: the inhibition constant Ki was 23 nM in test [1], 366 nM in test [2], 7.7 nM in test [3] and over 1000 nM in test [4].

Regarding `Cc1cc(-c2c(-c3cccc(C#N)c3)nn3ccc(NC4CCS(=O)(=O)CC4)nc23)cc(Cl)n1` [Example 2.27], the inhibition constant (Ki) in test [1] was 43 nM; in test [2], 317 nM; in test [3], 10.7 nM; in test [4], over 1000 nM.

For `Cc1cc(-c2c(-c3cccc(C#N)c3)nn3ccc(NCC(N)=O)nc23)cc(Cl)n1` [Example 2.28], the Ki in test [1] is 2 nM; in test [2], 81 nM; in test [3], 11.6 nM; in test [4], over 1000 nM.

On to `Cc1cc(-c2c(-c3cccc(C#N)c3)nn3ccc(N4CCNCC4)nc23)cc(Cl)n1` [Example 2.29], for which the Ki in test [1] is 21 nM; in test [2], 124 nM; in test [3] it was 11.8 nM; in test [4] it was over 1000 nM.

Regarding `Cc1cc(-c2c(-c3cccc(C#N)c3)nn3ccc(NC(C)CN(C)C)nc23)cc(Cl)n1` (stereo not shown) [Example 2.30], the Ki in test [1] is 55 nM; in test [2] it was 450 nM; in test [3] it was 15.8 nM; in test [4], over 1000 nM.

Consider `Cc1cc(-c2c(-c3cccc(C#N)c3)nn3ccc(O)nc23)cc(Cl)n1` [Example 2.31], for which the Ki was 70 nM in test [1], 551 nM in test [2], 15.8 nM in test [3] and over 1000 nM in test [4].

`Cc1cc(-c2c(-c3cccc(C#N)c3)nn3ccc(NCc4ncc[nH]4)nc23)cc(Cl)n1` [Example 2.32]: the Ki in test [1] was 102 nM; in test [2], 593 nM; in test [3], 17.1 nM; in test [4], over 1000 nM.

For `Cc1cc(-c2c(-c3cccc(C#N)c3)nn3ccc(N4CCC4C(=O)O)nc23)cc(Cl)n1` (stereo not shown) [Example 2.34], the Ki in test [1] is 163 nM; in test [2] it was 234 nM; in test [3], 22.5 nM; in test [4] it was over 1000 nM.

Regarding `Cc1cc(-c2c(-c3cccc(C#N)c3)nn3ccc(N4CC(C(=O)O)C4)nc23)cc(Cl)n1` [Example 2.35], the Ki in test [1] stood at 259 nM; in test [2], 305 nM; in test [3], 23.3 nM; in test [4] it was 2530 nM.

In the case of `Cc1cc(-c2c(-c3cccc(C#N)c3)nn3ccc(N4CC[C@@H](C(=O)O)C4)nc23)cc(Cl)n1` [Example 2.36], the Ki in test [1] was 430 nM; in test [2], 179 nM; in test [3], 25.1 nM; in test [4], over 1000 nM.

Regarding `Cc1cc(-c2c(-c3cccc(C#N)c3)nn3ccc(N4CCN(S(N)(=O)=O)CC4)nc23)cc(Cl)n1` [Example 2.37], the inhibition constant (Ki) in test [1] is 9 nM; in test [2], 1410 nM; in test [3], 26.5 nM; in test [4], over 1000 nM.

As for `Cc1cc(-c2c(-c3cccc(C#N)c3)nn3ccc(NC45CC(C(=O)O)(C4)C5)nc23)cc(Cl)n1` [Example 2.38], the Ki is 346 nM in test [1], 837 nM in test [2], 45.3 nM in test [3] and over 1000 nM in test [4].

With `Cc1cc(-c2c(-c3cccc(C#N)c3)nn3ccc(NC4CCN(CCO)CC4)nc23)cc(Cl)n1` [Example 2.39], the inhibition constant (Ki) in test [1] was 2 nM; in test [2], 241 nM; in test [3], 1.4 nM; in test [4] it was over 1000 nM.

Take `Cc1cc(-c2c(-c3cccc(C#N)c3)nn3ccc(N4CCN[C@@H](C(C)(C)O)C4)nc23)cc(Cl)n1` [Example 2.40]: the Ki in test [1] is 23 nM; in test [2], 145 nM; in test [3], 5.7 nM; in test [4], over 1000 nM.

As to `Cc1cc(-c2c(-c3cccc(C#N)c3)nn3ccc(NS(N)(=O)=O)nc23)cc(Cl)n1` [Example 93, 3-(2-chloro-6-methyl-4-pyridyl)-2-(3-cyanophenyl)-5-(sulfamoylamino)pyrazolo[1,5-a]pyrimidine], the inhibitory constant (Ki) in test [1] is 1 nM; in test [2] it was 307 nM; in test [3] it was 11.1 nM.
